The results in this text go back to patent US20090048332A1, “Natural Novel Antioxidants” (HEJ Research Insitute, priority 2007, published 2009).

The nature of the assay: superoxide radical scavenging assay (SOR; NADH/PMS/NBT). The assay is classed as biochemical. To be noted: for IC50: super oxide scavenging assay, formazan absorbance at 560 nm after three minutes, concentration needed to scavenge 50% of super oxide radicals, read-out: SOI (IC50 ± SEM); for radical scavenging activity in the SOR assay: qualitative statement; for IC50 compared with propyl gallate standard: comparison in words, refers to Table 1. The protocol: The reaction mixture contained 10 μL of test samples (1 mM in dimethylsulfoxide), 90 μL of 0.1 M phosphate buffer (pH 7.4), 40 μL of (280 μM) β-nicotanamide adenine dinucleotide (NADH), 40 μL of (80 μM) nitro blue tetrazolium (NBT). The reaction was initiated by the addition of 20 μL of (8 μM) phenazine methosulphate (PMS). The solutions of NADH, NBT and PMS were prepared in phosphate buffer. The formation of superoxide was monitored by measuring the absorbance of the blue formazan dye after three minutes at 560 nm against the corresponding blank solutions in microtitre plate using Elisa (multiple reader spectra Max-3400). IC50 value represents concentration of compounds needed to scavenge 50% of super oxide radicals. Propyl gallate was used as a positive control. All chemicals used were of analytical grade (Sigma Chemicals, USA).

By IC50 is commonly meant the concentration that inhibits the measured activity by half. Consider `COc1ccc(O)c(C(C)(C)C)c1` [BHA, butylated hydroxy anisole, reference compound], for which the 50% inhibitory concentration (IC50) turned out to be 96 ± 1.75 µM.

For the molecule `Cc1cc(OC(=O)c2c(C)cc(O)cc2O)cc(O)c1C(=O)OC[C@H](O)[C@H](O)CO` [Erythrin, erythrin], the “radical scavenging activity in the SOR assay” value (shortened to “radical scavenging activity”) is listed as “exceptionally high percentage of radical scavenging activity” and the half-inhibitory concentration (IC50) was 127 ± 0.97 µM.

Regarding `Cc1cc(OC(=O)c2c(C)cc(O)cc2O)cc(O)c1C(=O)O` [Lecanoric acid, lecanoric acid], the “IC50 compared with propyl gallate standard” value is reported as “lower than the propyl gallate standard”, the “radical scavenging activity” value is “exceptionally high percentage of radical scavenging activity” and the concentration for half-maximal inhibition (IC50) is 91.5 ± 2.1 µM.

For `CCCCCc1c2c(cc(O)c1C(=O)O)OC(=O)c1c(cc(OC)cc1C(=O)CCCC)O2` [Lobaric acid, lobaric acid], the “IC50 compared with propyl gallate standard” value is “lower than the propyl gallate standard”, the “radical scavenging activity” value is recorded as “exceptionally high percentage of radical scavenging activity” and the IC50 was 97.9 ± 1.6 µM.

`CCCc1cc(OC)cc(O)c1C(=O)Oc1c(OC)cc(CCC)c(C(=O)O)c1O` [Sekikiac acid, sekikaic acid]: the “IC50 compared with propyl gallate standard” value is on record as “lower than the propyl gallate standard”, the “radical scavenging activity” value is on record as “exceptionally high percentage of radical scavenging activity” and the IC50 worked out at 81.97 ± 0.31 µM.

Regarding `COC(=O)c1c(C)cc(OC(=O)c2c(C)cc(OC)cc2OC)cc1OC` [permethylated lecanoric acid], the “SOR activity on per-methylation” value (permethylated derivatives of the depsides) is given as “lost”.

With `CCCOC(=O)c1cc(O)c(O)c(O)c1` [propyl gallate, Propyl gallate, reference compound], the half-maximal inhibitory concentration (IC50) amounted to 106 ± 1.7 µM.
